Source: US20120058961A1, “Pharmaceutical Composition for Treating Cancers” (HENKAN PHARMACEUTICAL CO., LTD., priority 2010, published 2012)

System: Human prostatic carcinoma PC-3 cells
Experiment: Apoptosis assay (cell death detection ELISA, nucleosome level) in PC-3 cells
Format: cell-based
Method: Human prostatic carcinoma PC-3 cells (ATCC, CRL-1435, USA) were used for apoptosis assay. The apoptosis test was conducted following the method as described by Guseva et al. […] The cell death of each test was detected by ELISA following the method as provided by Holdenrieder et al. (Holdenrieder et al., Quantification of nucleosomes in serum by the cell death detection ELISA^plus. Roche Applied Science Biochemica. 1: 25-27, 2002). The cells were collected after incubation, and then lysed and evaluated for nucleosome levels by ELISA kit (Cell Death Detection ELISA^PLUS Kit, Roche, 1774425). The read absorbance at 405 nm was measured for each test compound or a vehicle and the values of apoptosis % were calculated. […] Assay Reference FasL (3 nM) was added to the control wells (named as Total wells) and the Incubation buffer to the Blank wells. HK-06-[…] at a concentration of 8 μM or 3 μM was added to each well, and the plate was then incubated in Antagonist buffer for 16 hours at 37° C., 5% CO2. The nucleosome level of each well was determined by the cell death detection kit. […] The plate was then incubated in Agonist buffer for 16 hours at 37° C., 5% CO2. The nucleosome level of each well was determined by the cell death detection kit. In the assays for SAHA and HK-06-[…], SAHA at a concentration of 0.1 μM, 1 μM, 10 μM, 100 μM or 300 μM was replaced for the NaB. The HK-06-[…] at a concentration of 4.5 μM was used. Results are expressed as a percentage of the group treated with the test compound as compared to that of the control group.

Compound | means of Apoptosis % (8 uM HK-06-D01 only (FIG. 1B)) | means of Apoptosis % (8 uM HK-06-D01 only as printed (FIG. 1C)) | means of Apoptosis % (8 uM HK-06-D01 only, 16 hours, relative to 3 nM Fas Ligand = 100% (FIG. 1A)) | means of Apoptosis % (0.3 mM NaB only (FIG. 1B)) | means of Apoptosis % (0.3 mM NaB only as printed (FIG. 1C)) | means of Apoptosis % (1 mM NaB only, 16 hours, relative to 3 nM Fas Ligand = 100% (FIG. 1A))
C[C@H](CCC1(O)O[C@H]2C[C@H]3[C@@H]4CC=C5C[C@@H](O[C@@H]6O[C@H](CO)[C@@H](O[C@@H]7O[C@@H](C)[C@H](O[C@@H]8O[C@@H](C)[C@H](O)[C@@H](O)[C@H]8O)[C@@H](O)[C@H]7O)[C@H](O)[C@H]6O[C@@H]6O[C@@H](C)[C@H](O)[C@@H](O)[C@H]6O)CC[C@]5(C)[C@H]4CC[C@]3(C)[C@H]2[C@@H]1C)CO[C@@H]1O[C@H](CO)[C@@H](O)[C@H](O)[C@H]1O (stereo partly drawn) [HK-06-D01, (25R)-26-O-beta-D-glucopyranosyl-22-hydroxy-5-ene-furostan-3beta, 26-diol-3-O-alpha-L-rhamnopyranosyl-(1→4)-alpha-L-rhamnopyranosyl-(1→4)-[alpha-L-rhamnopyranosyl-(1→2)]-beta-D-glucopyranoside] | 51% | 5% | 46.67% | – | – | –
CCCC(=O)[O-].[Na+] [NaB, sodium butyrate] | – | – | – | 4% | 3% | 29.67%
